Test results published in PubChem BioAssay (NCI).
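The compound was tested at five concentrations on cells cultured in 96-well plates, with a 48-hour exposure period. TGI marks complete inhibition of growth.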

How the values were obtained:
Assay in all cases: NCI tumour cell line growth inhibition, 48 h
IGROV1 ovarian = test system: IGROV1 ovarian
KM12 colon = test system: KM12 colon
RXF-631 renal = test system: RXF-631 renal
HCC-2998 colon = test system: HCC-2998 colon
SK-OV-3 ovarian = test system: SK-OV-3 ovarian
LOX IMVI melanoma = test system: LOX IMVI melanoma
M14 melanoma = test system: M14 melanoma
UACC-257 melanoma = test system: UACC-257 melanoma
U251 CNS = test system: U251 CNS
TK-10 renal = test system: TK-10 renal
ACHN renal = test system: ACHN renal
SNB-19 CNS = test system: SNB-19 CNS
MALME-3M melanoma = test system: MALME-3M melanoma
SK-MEL-2 melanoma = test system: SK-MEL-2 melanoma
OVCAR-4 ovarian = test system: OVCAR-4 ovarian
HOP-92 NSCLC = test system: HOP-92 NSCLC
KM20L2 colon = test system: KM20L2 colon
MOLT-4 leukemia = test system: MOLT-4 leukemia
SF-539 CNS = test system: SF-539 CNS
UO-31 renal = test system: UO-31 renal
HT29 colon = test system: HT29 colon
SN12C renal = test system: SN12C renal
NCI-H460 lung = test system: NCI-H460 lung
OVCAR-8 ovarian = test system: OVCAR-8 ovarian
SNB-78 CNS = test system: SNB-78 CNS
UACC-62 melanoma = test system: UACC-62 melanoma
DLD-1 colon = test system: DLD-1 colon
SR leukemia = test system: SR leukemia
SF-268 CNS = test system: SF-268 CNS
A549 NSCLC = test system: A549 NSCLC
786-0 renal = test system: 786-0 renal
SF-295 CNS = test system: SF-295 CNS
SNB-75 CNS = test system: SNB-75 CNS
K-562 leukemia = test system: K-562 leukemia
HOP-62 NSCLC = test system: HOP-62 NSCLC
HCT-15 colon = test system: HCT-15 colon
CCRF-CEM leukemia = test system: CCRF-CEM leukemia
A498 renal = test system: A498 renal
EKVX NSCLC = test system: EKVX NSCLC
NCI-H226 lung = test system: NCI-H226 lung
HCT-116 colon = test system: HCT-116 colon
SW-620 colon = test system: SW-620 colon
HL-60(TB) leukemia = test system: HL-60(TB) leukemia
M19-MEL melanoma = test system: M19-MEL melanoma
SK-MEL-28 melanoma = test system: SK-MEL-28 melanoma
NCI-H23 lung = test system: NCI-H23 lung
LXFL 529 NSCLC = test system: LXFL 529 NSCLC
SK-MEL-5 melanoma = test system: SK-MEL-5 melanoma
HOP-18 NSCLC = test system: HOP-18 NSCLC
OVCAR-3 ovarian = test system: OVCAR-3 ovarian
OVCAR-5 ovarian = test system: OVCAR-5 ovarian
CAKI-1 renal = test system: CAKI-1 renal
RPMI-8226 leukemia = test system: RPMI-8226 leukemia
NCI-H522 lung = test system: NCI-H522 lung
RXF 393 renal = test system: RXF 393 renal
DMS 273 small cell lung = test system: DMS 273 small cell lung
COLO 205 colon = test system: COLO 205 colon

## C/C(=N\NC(=O)C(N)=O)c1c(O)cc(C)oc1=O
IGROV1 ovarian
  TGI: > 100 µM
KM12 colon
  TGI: > 100 µM
RXF-631 renal
  TGI: > 100 µM
HCC-2998 colon
  TGI: > 100 µM
SK-OV-3 ovarian
  TGI: > 100 µM
LOX IMVI melanoma
  TGI: > 100 µM
M14 melanoma
  TGI: > 100 µM
UACC-257 melanoma
  TGI: > 100 µM
U251 CNS
  TGI: > 100 µM
TK-10 renal
  TGI: > 100 µM
ACHN renal
  TGI: > 100 µM
SNB-19 CNS
  TGI: > 100 µM
MALME-3M melanoma
  TGI: > 100 µM
SK-MEL-2 melanoma
  TGI: > 100 µM
OVCAR-4 ovarian
  TGI: > 100 µM
HOP-92 NSCLC
  TGI: > 100 µM
KM20L2 colon
  TGI: > 100 µM
MOLT-4 leukemia
  TGI: > 100 µM
SF-539 CNS
  TGI: > 100 µM
UO-31 renal
  TGI: > 100 µM
HT29 colon
  TGI: > 100 µM
SN12C renal
  TGI: > 100 µM
NCI-H460 lung
  TGI: > 100 µM
OVCAR-8 ovarian
  TGI: > 100 µM
SNB-78 CNS
  TGI: > 100 µM
UACC-62 melanoma
  TGI: > 100 µM
DLD-1 colon
  TGI: > 100 µM
SR leukemia
  TGI: > 100 µM
SF-268 CNS
  TGI: > 100 µM
A549 NSCLC
  TGI: > 100 µM
786-0 renal
  TGI: > 100 µM
SF-295 CNS
  TGI: > 100 µM
SNB-75 CNS
  TGI: > 100 µM
K-562 leukemia
  TGI: > 100 µM
HOP-62 NSCLC
  TGI: > 100 µM
HCT-15 colon
  TGI: > 100 µM
CCRF-CEM leukemia
  TGI: > 100 µM
A498 renal
  TGI: > 100 µM
EKVX NSCLC
  TGI: > 100 µM
NCI-H226 lung
  TGI: > 100 µM
HCT-116 colon
  TGI: > 100 µM
SW-620 colon
  TGI: > 100 µM
HL-60(TB) leukemia
  TGI: > 100 µM
M19-MEL melanoma
  TGI: > 100 µM
SK-MEL-28 melanoma
  TGI: > 100 µM
NCI-H23 lung
  TGI: > 100 µM
LXFL 529 NSCLC
  TGI: > 100 µM
SK-MEL-5 melanoma
  TGI: > 100 µM

## COc1cc(/C=C/C2=C(C#N)C(=O)OC2(C)C)ccc1O
IGROV1 ovarian
  TGI: > 100 µM
HOP-18 NSCLC
  TGI: > 100 µM
KM12 colon
  TGI: > 100 µM
OVCAR-3 ovarian
  TGI: > 100 µM
RXF-631 renal
  TGI: > 100 µM
HCC-2998 colon
  TGI: > 100 µM
SK-OV-3 ovarian
  TGI: > 100 µM
OVCAR-5 ovarian
  TGI: > 100 µM
LOX IMVI melanoma
  TGI: 44.2 µM
UACC-257 melanoma
  TGI: > 100 µM
U251 CNS
  TGI: 31.7 µM
TK-10 renal
  TGI: > 100 µM
ACHN renal
  TGI: > 100 µM
CAKI-1 renal
  TGI: > 100 µM
SNB-19 CNS
  TGI: > 100 µM
MALME-3M melanoma
  TGI: > 100 µM
SK-MEL-2 melanoma
  TGI: > 100 µM
HOP-92 NSCLC
  TGI: > 100 µM
RPMI-8226 leukemia
  TGI: 49.6 µM
KM20L2 colon
  TGI: > 100 µM
MOLT-4 leukemia
  TGI: > 100 µM
UO-31 renal
  TGI: > 100 µM
HT29 colon
  TGI: > 100 µM
SN12C renal
  TGI: > 100 µM
NCI-H460 lung
  TGI: > 100 µM
OVCAR-8 ovarian
  TGI: > 100 µM
SNB-78 CNS
  TGI: > 100 µM
UACC-62 melanoma
  TGI: > 100 µM
DLD-1 colon
  TGI: > 100 µM
SR leukemia
  TGI: 67.3 µM
SF-268 CNS
  TGI: > 100 µM
A549 NSCLC
  TGI: > 100 µM
NCI-H522 lung
  TGI: 44.4 µM
SF-295 CNS
  TGI: > 100 µM
SNB-75 CNS
  TGI: > 100 µM
K-562 leukemia
  TGI: > 100 µM
HOP-62 NSCLC
  TGI: > 100 µM
HCT-15 colon
  TGI: 93.8 µM
CCRF-CEM leukemia
  TGI: 33.1 µM
RXF 393 renal
  TGI: > 100 µM
A498 renal
  TGI: > 100 µM
DMS 273 small cell lung
  TGI: > 100 µM
EKVX NSCLC
  TGI: > 100 µM
NCI-H226 lung
  TGI: > 100 µM
HCT-116 colon
  TGI: > 100 µM
SW-620 colon
  TGI: > 100 µM
HL-60(TB) leukemia
  TGI: > 100 µM
COLO 205 colon
  TGI: > 100 µM
M19-MEL melanoma
  TGI: > 100 µM
SK-MEL-28 melanoma
  TGI: > 100 µM
NCI-H23 lung
  TGI: > 100 µM
SK-MEL-5 melanoma
  TGI: > 100 µM
